Laboratory results reported in BindingDB's records for doi:10.1038/nchembio.211 (Praecis Pharmaceuticals, 2009).
Substitutions are numbered along the chain they refer to. pEC50, pIC50: −log10 of the molar value.

Tests used:
Conditions in all cases: pH 9.5; 16 °C
Aurora kinase A [1] = molecular target: T1, Aurora kinase A (Homo sapiens, UniProt O14965); assay: Aurora A Inhibition Assay
T1 sequence (O14965 whole entry): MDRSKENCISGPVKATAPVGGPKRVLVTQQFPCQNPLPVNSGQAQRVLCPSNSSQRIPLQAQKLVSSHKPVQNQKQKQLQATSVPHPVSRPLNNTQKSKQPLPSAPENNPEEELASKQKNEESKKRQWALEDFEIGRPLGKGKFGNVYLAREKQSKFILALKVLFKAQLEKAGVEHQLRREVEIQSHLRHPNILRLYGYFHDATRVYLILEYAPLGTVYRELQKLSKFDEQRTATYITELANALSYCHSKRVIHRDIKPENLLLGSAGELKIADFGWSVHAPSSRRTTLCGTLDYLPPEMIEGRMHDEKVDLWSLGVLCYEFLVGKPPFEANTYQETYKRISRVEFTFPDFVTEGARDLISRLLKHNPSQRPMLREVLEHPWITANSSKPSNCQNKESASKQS
Excerpt: (§1) Selection of DNA-encoded libraries (DELs) which are covalent attachment of encoding double stranded DNA to small-molecule created using a combination of enzymatic and chemical synthesis in a split-and-pool format against Aurora A kinase

[2] = molecular target: Mitogen-activated protein kinase 14 (Homo sapiens, UniProt Q16539); assay: MAPK p38 Inhibition Assay
Excerpt: Selection of DNA-encoded libraries (DELs), which are covalent attachment of encoding double stranded DNA to small-molecule created using a combination of enzymatic and chemical synthesis in a split-and-pool format against p38 mitogen-activated protein kinase

Aurora kinase A [3] = molecular target: T2, Aurora kinase A (Homo sapiens, UniProt O14965); assay: Aurora A Inhibition Assay; remark: listed apart in the source
T2 sequence (O14965 whole entry): T1 sequence (O14965 whole entry) with I57V
Excerpt: as §1

Sequence of Mitogen-activated protein kinase 14 (Q16539 whole entry): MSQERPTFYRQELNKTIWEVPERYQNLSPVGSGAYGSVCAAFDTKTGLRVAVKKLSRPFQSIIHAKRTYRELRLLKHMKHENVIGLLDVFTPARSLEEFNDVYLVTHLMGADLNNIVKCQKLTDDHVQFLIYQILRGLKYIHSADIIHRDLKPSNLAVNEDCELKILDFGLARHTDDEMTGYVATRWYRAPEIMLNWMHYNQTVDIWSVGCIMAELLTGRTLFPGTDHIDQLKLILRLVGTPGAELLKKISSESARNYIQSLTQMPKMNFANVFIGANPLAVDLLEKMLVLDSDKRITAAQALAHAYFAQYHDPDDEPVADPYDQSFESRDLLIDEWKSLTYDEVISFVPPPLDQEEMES

pIC50 (Aurora kinase A [1])	Compound	other results
5.20	COc1ccccc1CCNc1nc(NC(Cc2c[nH]c3ncccc23)C(N)=O)nc(N(C)[C@@H](C)c2ccccc2)n1 (stereo partly drawn) [2-(4-(2-Methoxyphenethylamino)-6-(methyl((S)-1-phenylethyl)amino)-1,3,5-triazin-2-ylamino)-3-(1H-pyrrolo[2,3-b]pyridin-3-yl)propanamide]	–
5.43	COc1ccccc1CCNc1nc(Nc2ccc3ncccc3c2)nc(NC(Cc2c[nH]c3ncccc23)C(N)=O)n1 (stereo unspecified) [2-(4-(2-Methoxyphenethylamino)-6-(quinolin-6-ylamino)-1,3,5-triazin-2-ylamino)-3-(1H-pyrrolo[2,3-b]pyridin-3-yl)propanamide]	–
5.42	CCCCN(C)c1nc(NCCc2ccccc2OC)nc(NC(Cc2c[nH]c3ncccc23)C(N)=O)n1 (stereo unspecified) [2-(4-(Butyl(methyl)amino)-6-(2-methoxyphenethylamino)-1,3,5-triazin-2-ylamino)-3-(1H-pyrrolo[2,3-b]pyridin-3-yl)propanamide]	–
–	CNC(=O)[C@H](Cc1ccc2c(c1)COC(C)(C)O2)Nc1nc(NCC(C)C)nc(-n2cnc3cc(C(=O)N4CCCc5ccccc54)ccc32)n1 [(S)-3-(2,2-Dimethyl-4H-benzo[d][1,3]dioxin-6-yl)-2-(4-(isobutylamino)-6-(5-(1,2,3,4-tetrahydroquinoline-1-carbonyl)-1H-benzo[d]imidazol-1-yl)-1,3,5-triazin-2-ylamino)-N-methylpropanamide]	pEC50 [2]: 6.60
–	CNc1nc(NCCc2ccccc2OC)nc(Nc2ccc3ncccc3c2)n1 [DEL-A, 12]	pIC50 (Aurora kinase A [3]): 5.29
5.92	CCCCN(C)c1nc(NCCc2ccccc2OC)nc(NCCc2c[nH]c3ncccc23)n1 [N2-(2-(1H-Pyrrolo[2,3-b]pyridin-3-yl)ethyl)-N4-butyl-N6-(2-methoxyphenethyl)-N4-methyl-1,3,5-triazine-2,4,6-triamine]	–
